Laboratory results: ChEMBL document CHEMBL1201862, “PubChem BioAssay data set” (2004)
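In this assay, cells in 96-well plates receive the compound at five concentrations for 48 hours. Endpoints are linearly interpolated between the surrounding concentrations. GI50 is the concentration that inhibits growth by half.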 The source made the active and inactive calls. No stated cut-off is given here; in the data, active = GI50 up to about 1.1 µM and inactive = higher. Numbered stars: 1 amine (or outer) side, 2 acyl side, 3 side chain; on linkers, the order of the positions; unused ones are H or OH. Square brackets hold non-standard residues; d marks the D form. Peptide text beside a SMILES is read from it. * marks the point of attachment. X30 = CC(=O)N(C)SCC(N[*:1])C(=O)[*:2]; Cbz = O=C(OCc1ccccc1)*; Bn = c1ccc(C*)cc1

Legend:
Assay in all cases: NCI tumour cell line growth inhibition, 48 h
[1] = tested on: ACHN
[2] = tested on: COLO 205
[3] = tested on: HCC 2998
[4] = tested on: HCT-116
[5] = tested on: HCT-15
[6] = tested on: KM12
[7] = tested on: LOX IMVI
[8] = tested on: M14
[9] = tested on: NCI-H460
[10] = tested on: OVCAR-5
[11] = tested on: SF-295
[12] = tested on: SK-MEL-28
[13] = tested on: SK-MEL-2
[14] = tested on: SN12C
[15] = tested on: SR
[16] = tested on: SW-620
[17] = tested on: T47D
[18] = tested on: U-251
[19] = tested on: UO-31
[20] = tested on: M19-MEL

Row | Structure (SMILES) | GI50 [1] | GI50 [2] | GI50 [3] | GI50 [4] | GI50 [5] [µM] | GI50 [6] | GI50 [7] | GI50 [8] | GI50 [9] | GI50 [10] | GI50 [11] | GI50 [12] | GI50 [13] | GI50 [14] | GI50 [15] | GI50 [16] | GI50 [17] | GI50 [18] | GI50 [19] | GI50 [20]
1 | CCOC(=O)c1ccc(/N=C/C=C(\Nc2ccc(C(=O)OCC)cc2)C23CC4CC(CC(C4)C2)C3)cc1 | 93.1 µM (inactive) | 45 µM (inactive) | 91.2 µM (inactive) | 56.5 µM (inactive) | 92.3 | 43.5 µM (inactive) | 95.3 µM (inactive) | 35.8 µM (inactive) | 42.2 µM (inactive) | 35.8 µM (inactive) | 52.1 µM (inactive) | > 100 µM (inactive) | > 100 µM (inactive) | 53.2 µM (inactive) | 11.1 µM (inactive) | 27.5 µM (inactive) | 18.3 µM (inactive) | > 100 µM (inactive) | 3.43 µM (inactive) | –
2 | c1ccc(CSc2nc(N3CCOCC3)c3cn[nH]c3n2)cc1 | 17.2 µM (inactive) | 12.6 µM (inactive) | 23.6 µM (inactive) | 30.5 µM (inactive) | 25.8 | 13.3 µM (inactive) | 15.4 µM (inactive) | 23.6 µM (inactive) | 17.8 µM (inactive) | 22.3 µM (inactive) | 24.4 µM (inactive) | 19.1 µM (inactive) | 16.6 µM (inactive) | 13.4 µM (inactive) | 10.5 µM (inactive) | 25.9 µM (inactive) | 15.6 µM (inactive) | 20.5 µM (inactive) | 11.6 µM (inactive) | –
3 | C=C(C)[C@@H]1C[C@H]2O[C@](O)(C(=C)CC(=O)/C=C(/C)C[C@@H]3OC(=O)[C@]24O[C@@H]34)[C@H]1O | > 100 µM (inactive) | > 100 µM (inactive) | > 100 µM (inactive) | > 100 µM (inactive) | > 100 | > 100 µM (inactive) | > 100 µM (inactive) | > 100 µM (inactive) | > 100 µM (inactive) | > 100 µM (inactive) | > 100 µM (inactive) | > 100 µM (inactive) | > 100 µM (inactive) | > 100 µM (inactive) | > 100 µM (inactive) | > 100 µM (inactive) | > 100 µM (inactive) | > 100 µM (inactive) | > 100 µM (inactive) | –
4 | O=C1CC(c2ccccc2)NCCCCN2CC(CN1)C(C(O)c1ccccc1)C2=O (configuration not stated) | > 100 µM (inactive) | > 100 µM (inactive) | > 100 µM (inactive) | > 100 µM (inactive) | > 100 | > 100 µM (inactive) | > 100 µM (inactive) | > 100 µM (inactive) | > 100 µM (inactive) | > 100 µM (inactive) | > 100 µM (inactive) | > 100 µM (inactive) | > 100 µM (inactive) | > 100 µM (inactive) | > 100 µM (inactive) | > 100 µM (inactive) | > 100 µM (inactive) | > 100 µM (inactive) | > 100 µM (inactive) | –
5 | CCOC(=O)C(=CNc1ccc(N(C2=NCC(C)S2)c2ccc(F)c(Cl)c2)cc1)C(=O)OCC (configuration not stated) | 18.5 µM (inactive) | 17.8 µM (inactive) | 15.2 µM (inactive) | 16 µM (inactive) | 18.8 | 18.7 µM (inactive) | 16.8 µM (inactive) | 18.9 µM (inactive) | 23.6 µM (inactive) | 19.6 µM (inactive) | 25.4 µM (inactive) | 18.7 µM (inactive) | 20.4 µM (inactive) | 17.9 µM (inactive) | 21.8 µM (inactive) | 20.8 µM (inactive) | 13.9 µM (inactive) | 20.8 µM (inactive) | 18.1 µM (inactive) | –
6 | c1csc(-c2ccc(-c3ccsc3)s2)c1 | > 100 µM (inactive) | > 100 µM (inactive) | > 100 µM (inactive) | > 100 µM (inactive) | > 100 | > 100 µM (inactive) | > 100 µM (inactive) | > 100 µM (inactive) | > 100 µM (inactive) | > 100 µM (inactive) | > 100 µM (inactive) | > 100 µM (inactive) | > 100 µM (inactive) | > 100 µM (inactive) | > 100 µM (inactive) | > 100 µM (inactive) | > 27.4 µM (inactive) | > 100 µM (inactive) | > 100 µM (inactive) | –
7 | COc1cc(/C=C2\C(=O)N(c3ccccc3)C(c3ccccc3)S2(=O)=O)cc(OC)c1OC (configuration not stated) | > 100 µM (inactive) | 23.3 µM (inactive) | 64.6 µM (inactive) | 21.1 µM (inactive) | 37.9 | 38.4 µM (inactive) | 31.4 µM (inactive) | 35.2 µM (inactive) | 54 µM (inactive) | > 100 µM (inactive) | > 100 µM (inactive) | 51.6 µM (inactive) | 42.6 µM (inactive) | 39.4 µM (inactive) | 24.5 µM (inactive) | 51.3 µM (inactive) | 36.1 µM (inactive) | 28.6 µM (inactive) | 22.9 µM (inactive) | –
8 | O=C1OC(C2Cc3cc4c(cc3C2=O)CCC4)c2ccccc21 (configuration not stated) | 47.9 µM (inactive) | 33.9 µM (inactive) | 21.2 µM (inactive) | 36.6 µM (inactive) | 34.3 | 35.9 µM (inactive) | 37 µM (inactive) | > 100 µM (inactive) | 40 µM (inactive) | > 100 µM (inactive) | 74.5 µM (inactive) | 38.5 µM (inactive) | 65 µM (inactive) | 63 µM (inactive) | 35.7 µM (inactive) | 37.3 µM (inactive) | 71.3 µM (inactive) | 34 µM (inactive) | 55.6 µM (inactive) | –
9 | CN(CC#N)C(=O)Cc1ccc([N+](=O)[O-])cc1 | > 10 µM (inactive) | > 10 µM (inactive) | > 10 µM (inactive) | > 10 µM (inactive) | > 10 | > 10 µM (inactive) | > 10 µM (inactive) | > 10 µM (inactive) | > 10 µM (inactive) | > 10 µM (inactive) | > 10 µM (inactive) | > 10 µM (inactive) | > 10 µM (inactive) | > 10 µM (inactive) | > 10 µM (inactive) | > 10 µM (inactive) | > 10 µM (inactive) | > 10 µM (inactive) | > 10 µM (inactive) | –
10 | CN(C)c1ccc(C2SCC(=O)N2c2ccc(Oc3ccc(Cl)cc3)c(Cl)c2)cc1 (configuration not stated) | 29.7 µM (inactive) | 20.6 µM (inactive) | 22.3 µM (inactive) | 16.7 µM (inactive) | 24.2 | 20.3 µM (inactive) | 18.7 µM (inactive) | 28.8 µM (inactive) | 22.5 µM (inactive) | 26.4 µM (inactive) | > 10 µM (inactive) | 35 µM (inactive) | 20.4 µM (inactive) | 23.3 µM (inactive) | 27.5 µM (inactive) | 29.4 µM (inactive) | 15.3 µM (inactive) | 20.5 µM (inactive) | 11.6 µM (inactive) | –
11 | CC1OC2OC3C(OCC(O)C3O)OC(=O)[C@]34CCC(C)(C)CC3C3=CCC5[C@@]6(C)C[C@H](O)[C@H](OC7OC(CO)C(O)C(O)C7OC7OC(COC(=O)CC(C)(O)CC(=O)OC1C(OC1OC(CO)C(O)C(O)C1O)C2O)C(O)C(O)C7O)[C@@](C)(CO)C6CC[C@@]5(C)[C@]3(C)CC4 (some centres not stated) | 2.72 µM (inactive) | 2.23 µM (inactive) | 1.42 µM (inactive) | 2.59 µM (inactive) | 6.25 | 2.37 µM (inactive) | 3.27 µM (inactive) | 2.51 µM (inactive) | 9.55 µM (inactive) | 2.01 µM (inactive) | 1.52 µM (inactive) | 1.3 µM (inactive) | 1.58 µM (inactive) | 4.98 µM (inactive) | 3.66 µM (inactive) | 0.359 µM (active) | 3.34 µM (inactive) | 2.9 µM (inactive) | 1.64 µM (inactive) | –
12 | O=C(NC12CC3CC(CC(F)(C3)C1)C2)c1ccccc1 | > 100 µM (inactive) | > 100 µM (inactive) | > 100 µM (inactive) | > 100 µM (inactive) | – | > 100 µM (inactive) | > 100 µM (inactive) | > 100 µM (inactive) | > 100 µM (inactive) | > 100 µM (inactive) | – | > 100 µM (inactive) | > 100 µM (inactive) | – | – | > 100 µM (inactive) | – | > 100 µM (inactive) | 59.2 µM (inactive) | > 100 µM (inactive)
13 | NS(=O)(=O)c1nnc(NC(=O)c2ccccc2)s1 | > 100 µM (inactive) | > 100 µM (inactive) | > 100 µM (inactive) | > 100 µM (inactive) | > 100 | > 100 µM (inactive) | > 100 µM (inactive) | > 100 µM (inactive) | > 100 µM (inactive) | > 100 µM (inactive) | > 100 µM (inactive) | > 100 µM (inactive) | > 100 µM (inactive) | > 100 µM (inactive) | > 100 µM (inactive) | > 100 µM (inactive) | > 100 µM (inactive) | > 100 µM (inactive) | > 100 µM (inactive) | –
14 | CC(=O)N(C)SCC(NC(=O)C(Cc1ccccc1)NC(=O)OCc1ccccc1)C(=O)NC(Cc1ccccc1)C(=O)NC(Cc1c[nH]c2ccccc12)C(=O)NC(CCCCNC(=O)OCc1ccccc1)C(=O)NC(C(=O)NC(CSN(C)C(C)=O)C(=O)NC(C(N)=O)C(C)OCc1ccccc1)C(C)OCc1ccccc1 (configuration not stated) (Cbz-F[X30]FWK(Cbz)T(Bn)[X30]T(Bn)-NH2; configuration not given here) | > 100 µM (inactive) | > 100 µM (inactive) | > 100 µM (inactive) | > 100 µM (inactive) | > 100 | 40.9 µM (inactive) | 86.5 µM (inactive) | > 100 µM (inactive) | > 100 µM (inactive) | > 100 µM (inactive) | > 100 µM (inactive) | > 100 µM (inactive) | > 100 µM (inactive) | > 100 µM (inactive) | > 100 µM (inactive) | > 100 µM (inactive) | > 100 µM (inactive) | 70.5 µM (inactive) | > 100 µM (inactive) | –
